Like-named read-outs stand apart in the source and are kept apart here.
What was measured:
clinical = conditions: human, in vivo; for AUC(0-inf): read-out: AUCINF_obs; for Cmax: read-out: Cmax
Description: For single-dose PK parameters, plasma samples were taken at pre-dose and 0.5 h, 1 h, 2 h, 3 h, 4 h, 6 h, 8 h, 12 h, 24 h, 48 h, 72 h, 96 h, 120 h, 144 h, and 168 h post-dose in PK lead-in phase of dose-escalation phase, and plasma samples were also taken at pre-dose and 0.5 h, 1 h, 2 h, 3 h, 4 h, 6 h, 8 h, 12 h, and 24 h post-dose in cycle 1 day 1 of dose-expansion phase. During continuous dosing, serial plasma samples were collected at pre-dose in cycle 1 day 15, pre-dose in cycle 1 day 22, pre-dose and 0.5 h, 1 h, 2 h, 3 h, 4 h, 6 h, 8 h, 12 h, and 24 h post-dose in cycle 1 day 28 for all dose cohorts. The following PK parameters were assessed: area under the concentration-time curve from the time of dosing extrapolated to infinity, based on the last observed concentration (AUCINF_obs); area under the concentration-time curve from the time of dosing to the time of last observation (AUClast); maximum concentration (Cmax); time to maximum concentration (Tmax); elimination half-life (T1/2); and mean residence time from the time of dosing to the time of the last measurable concentration (MRTlast).

ALK F1174L = ALK F1174L (Homo sapiens, UniProt Q9UM73, F1174L); assay: ALK enzymatic IC50, F1174L; assay type: biochemical
Description: Supplement 12916_2022_2646_MOESM1_ESM.docx, table 1 | column: ALK Enzymatic IC50 (nM)

[1] = cycle 1 day 28 of dose-escalation phase, 600 mg (n=7), mean
[2] = cycle 1 day 28 of dose-escalation phase, 800 mg (n=2), mean
[3] = single dose, PK lead-in phase of dose-escalation phase, 50 mg (n=2), mean
[4] = single dose, PK lead-in phase of dose-escalation phase, 100 mg (n=3), mean
[5] = single dose, PK lead-in phase of dose-escalation phase, 200 mg (n=3), mean
[6] = single dose, PK lead-in phase of dose-escalation phase, 300 mg (n=3), mean
[7] = single dose, PK lead-in phase of dose-escalation phase, 450 mg (n=4), mean
[8] = single dose, PK lead-in phase of dose-escalation phase, 600 mg (n=7), mean
[9] = single dose, PK lead-in phase of dose-escalation phase, 800 mg (n=3), mean

## COc1cc(N2CCC(N3CCN(C)CC3)CC2)ccc1Nc1nc2c(c(Nc3ccccc3S(=O)(=O)NC(C)C)n1)CCN2 [Conteltinib]
clinical; [1]
  AUC(0-t): 14000 ng·h/mL
  MRT last: 10.8 h
  AUC(0-inf): 53800 ng·h/mL
  Cmax: 985 ng/mL
clinical; cycle 1 day 28 of dose-escalation phase, 600 mg (n=7), mean, read-out: T1/2 (converted)
  half-life: 1.88 days
clinical; cycle 1 day 28 of dose-escalation phase, 600 mg (n=7), mean, read-out: Tmax
  Tmax: 2.5 h
clinical; [2]
  AUC(0-t): 5500 ng·h/mL
  MRT last: 11.6 h
  AUC(0-inf): 27200 ng·h/mL
  Cmax: 305 ng/mL
clinical; cycle 1 day 28 of dose-escalation phase, 800 mg (n=2), mean, read-out: T1/2 (converted)
  half-life: 2.2 days
clinical; cycle 1 day 28 of dose-escalation phase, 800 mg (n=2), mean, read-out: Tmax
  Tmax: 3.5 h
clinical; multiple-dose administration, read-out: mean T1/2 across dose cohorts
  half-life: 1.1 to 14.7 days
clinical; multiple-dose administration, read-out: mean Tmax across dose cohorts
  Tmax: 1.5 to 4.3 h
clinical; [3]
  AUC(0-t): 125 ng·h/mL
  MRT last: 8.1 h
  AUC(0-inf): 206 ng·h/mL
  Cmax: 16.3 ng/mL
clinical; single dose, PK lead-in phase of dose-escalation phase, 50 mg (n=2), mean, read-out: T1/2 (converted)
  half-life: 0.938 days
clinical; single dose, PK lead-in phase of dose-escalation phase, 50 mg (n=2), mean, read-out: Tmax
  Tmax: 2 h
clinical; [4]
  AUC(0-t): 732 ng·h/mL
  MRT last: 30.3 h
  AUC(0-inf): 1050 ng·h/mL
  Cmax: 69 ng/mL
clinical; single dose, PK lead-in phase of dose-escalation phase, 100 mg (n=3), mean, read-out: T1/2 (converted)
  half-life: 3.76 days
clinical; single dose, PK lead-in phase of dose-escalation phase, 100 mg (n=3), mean, read-out: Tmax
  Tmax: 2.8 h
clinical; [5]
  AUC(0-t): 2550 ng·h/mL
  MRT last: 47.4 h
  AUC(0-inf): 3110 ng·h/mL
  Cmax: 140 ng/mL
clinical; single dose, PK lead-in phase of dose-escalation phase, 200 mg (n=3), mean, read-out: T1/2 (converted)
  half-life: 3.48 days
clinical; single dose, PK lead-in phase of dose-escalation phase, 200 mg (n=3), mean, read-out: Tmax
  Tmax: 2.7 h
clinical; [6]
  AUC(0-t): 4340 ng·h/mL
  MRT last: 46.2 h
  AUC(0-inf): 5110 ng·h/mL
  Cmax: 246 ng/mL
clinical; single dose, PK lead-in phase of dose-escalation phase, 300 mg (n=3), mean, read-out: T1/2 (converted)
  half-life: 3.27 days
clinical; single dose, PK lead-in phase of dose-escalation phase, 300 mg (n=3), mean, read-out: Tmax
  Tmax: 2.5 h
clinical; [7]
  AUC(0-t): 9880 ng·h/mL
  MRT last: 40.5 h
  AUC(0-inf): 11500 ng·h/mL
  Cmax: 544 ng/mL
clinical; single dose, PK lead-in phase of dose-escalation phase, 450 mg (n=4), mean, read-out: T1/2 (converted)
  half-life: 3.28 days
clinical; single dose, PK lead-in phase of dose-escalation phase, 450 mg (n=4), mean, read-out: Tmax
  Tmax: 3.3 h
clinical; [8]
  AUC(0-t): 9640 ng·h/mL
  MRT last: 43.3 h
  AUC(0-inf): 11200 ng·h/mL
  Cmax: 452 ng/mL
clinical; single dose, PK lead-in phase of dose-escalation phase, 600 mg (n=7), mean, read-out: T1/2 (converted)
  half-life: 3.28 days
clinical; single dose, PK lead-in phase of dose-escalation phase, 600 mg (n=7), mean, read-out: Tmax
  Tmax: 3.9 h
clinical; [9]
  AUC(0-t): 9820 ng·h/mL
  MRT last: 42 h
  AUC(0-inf): 11200 ng·h/mL
  Cmax: 421 ng/mL
clinical; single dose, PK lead-in phase of dose-escalation phase, 800 mg (n=3), mean, read-out: T1/2 (converted)
  half-life: 3.22 days
clinical; single dose, PK lead-in phase of dose-escalation phase, 800 mg (n=3), mean, read-out: Tmax
  Tmax: 3.7 h
clinical; single-dose administration, read-out: mean T1/2 across dose cohorts
  half-life: 0.696 to 3.76 days
clinical; single-dose administration, read-out: mean Tmax across dose cohorts
  Tmax: 2 to 4.6 h
clinical; cycle 1 day 28 of dose-expansion phase, 600 mg (n=10), mean
  MRT last: 10.9 h
clinical; single dose, cycle 1 day 1 of dose-expansion phase, 450 mg (n=10), mean, read-out: T1/2 (converted)
  half-life: 0.975 days
ALK F1174L
  IC50: 4.3 nM

— publication PMC9694544, “Conteltinib (CT-707) in patients with advanced ALK-positive non-small cell lung cancer: a multicenter, open-label, first-in-human phase 1 study” (BMC Medicine, 2022)
